Experimental data from US12268674B2, “Mi-2β inhibitor as an immunotherapy agent” (BioVentures, LLC, priority 2021, dated 2025).
Each block holds one compound with its values, some of them ahead of it.

Columns and labels:
[1] = biological target: T1, recombinant purified human Mi-2β protein (Homo sapiens, UniProt Q14839); test: FRET-based nucleosome repositioning assay (EpiDyne-FRET); assay type: biochemical; settings: FRET-based nucleosome repositioning assay; read-out: IC50 against Mi-2β
T1 construct: made in house
T1 sequence (Q14839 whole entry): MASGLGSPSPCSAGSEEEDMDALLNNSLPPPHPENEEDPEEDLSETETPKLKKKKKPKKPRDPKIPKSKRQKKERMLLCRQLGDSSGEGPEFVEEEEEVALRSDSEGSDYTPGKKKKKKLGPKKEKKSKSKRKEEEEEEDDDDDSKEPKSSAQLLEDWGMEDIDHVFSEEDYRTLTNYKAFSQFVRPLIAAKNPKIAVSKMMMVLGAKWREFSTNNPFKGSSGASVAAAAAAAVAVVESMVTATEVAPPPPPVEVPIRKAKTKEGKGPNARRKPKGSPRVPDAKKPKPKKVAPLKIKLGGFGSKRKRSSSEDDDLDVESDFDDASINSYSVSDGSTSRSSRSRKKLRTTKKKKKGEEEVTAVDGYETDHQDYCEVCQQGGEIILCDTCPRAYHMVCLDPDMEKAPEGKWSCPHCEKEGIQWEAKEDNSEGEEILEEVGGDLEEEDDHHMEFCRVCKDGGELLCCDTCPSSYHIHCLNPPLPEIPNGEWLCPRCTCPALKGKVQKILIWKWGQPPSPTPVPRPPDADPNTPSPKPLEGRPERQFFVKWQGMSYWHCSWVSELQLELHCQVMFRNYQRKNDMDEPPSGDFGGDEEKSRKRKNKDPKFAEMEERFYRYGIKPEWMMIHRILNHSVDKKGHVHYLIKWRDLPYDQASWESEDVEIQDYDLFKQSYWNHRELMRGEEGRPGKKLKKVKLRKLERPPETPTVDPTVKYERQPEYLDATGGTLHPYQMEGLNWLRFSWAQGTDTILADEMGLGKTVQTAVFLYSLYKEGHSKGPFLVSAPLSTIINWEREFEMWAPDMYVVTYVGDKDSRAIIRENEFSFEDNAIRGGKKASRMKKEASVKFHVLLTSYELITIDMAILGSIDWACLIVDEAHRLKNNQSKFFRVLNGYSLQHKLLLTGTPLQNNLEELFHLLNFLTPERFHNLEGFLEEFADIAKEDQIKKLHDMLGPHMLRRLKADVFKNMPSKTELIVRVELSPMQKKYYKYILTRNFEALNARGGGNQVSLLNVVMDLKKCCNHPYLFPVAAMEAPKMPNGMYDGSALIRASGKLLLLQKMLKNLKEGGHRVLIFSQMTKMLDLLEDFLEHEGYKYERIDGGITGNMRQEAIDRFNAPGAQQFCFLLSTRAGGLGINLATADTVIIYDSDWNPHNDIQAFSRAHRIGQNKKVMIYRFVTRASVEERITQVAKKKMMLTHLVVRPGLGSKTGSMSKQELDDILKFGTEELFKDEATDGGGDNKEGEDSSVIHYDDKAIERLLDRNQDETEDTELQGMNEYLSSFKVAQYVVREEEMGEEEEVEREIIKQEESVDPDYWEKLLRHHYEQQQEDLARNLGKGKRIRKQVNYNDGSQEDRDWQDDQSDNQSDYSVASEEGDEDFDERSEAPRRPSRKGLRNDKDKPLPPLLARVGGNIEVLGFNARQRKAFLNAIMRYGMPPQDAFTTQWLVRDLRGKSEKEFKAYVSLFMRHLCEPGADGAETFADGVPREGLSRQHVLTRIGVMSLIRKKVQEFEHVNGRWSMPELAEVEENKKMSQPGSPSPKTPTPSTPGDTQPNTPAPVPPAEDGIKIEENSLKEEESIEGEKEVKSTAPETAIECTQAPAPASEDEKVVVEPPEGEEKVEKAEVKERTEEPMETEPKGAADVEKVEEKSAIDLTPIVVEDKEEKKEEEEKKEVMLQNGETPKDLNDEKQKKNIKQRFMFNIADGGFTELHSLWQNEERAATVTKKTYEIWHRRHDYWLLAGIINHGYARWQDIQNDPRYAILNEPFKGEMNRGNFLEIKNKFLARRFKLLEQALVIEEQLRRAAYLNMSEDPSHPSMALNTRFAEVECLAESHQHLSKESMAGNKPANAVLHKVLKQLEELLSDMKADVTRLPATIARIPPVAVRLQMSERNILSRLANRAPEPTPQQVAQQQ
Protocol: To screen small molecules that inhibit Mi-2β activity, Homology Modeling was carried out using Structure Prediction Wizard in Prime (49, 50). Mi-2β belongs to the CHD family of chromatin remodelers, which share highly conserved ATPase/helicase domains (51, 52). The Homology Model of Mi-2β was generated using the yeast CHD1 structure (PDB code: 3MWY) as template and the sequence was obtained from Uniprot (53), which clearly depicted the interaction of Mi-2β binding pocket and ATP (FIG. 10a). Virtual screening was done with the enzyme hinge region ligands database and nucleoside mimetic database from Enamine. All ligands of ˜23,010 compounds were docked to the ATP binding site using SP docking and post-processed with Prime MM-GBSA. Ligands with a methyldihydroimidazopyridinone structure were predicted to bind best to the ATP binding region of Mi-2β. To analyze biochemically the inhibitory activity of those inhibitors, a Fluorescence Resonance Energy Transfer (FRET)-based nucleosome repositioning assay (54, 55) was designed and modified using recombinant purified human Mi-2β protein to screen an in-house library of small molecular compounds with a methyldihydroimidazopyridinone structure (FIG. 10b). Briefly, the recombinant nucleosome substrates consist of a Cy5-labeled human histone octamer (H2A T120C-Cy5) wrapped with 5′ Cy3-labeled DNA, which contains a terminal nucleosome 601 positioning sequence. The 601 sequence provides the most thermodynamically preferred locations on DNA for histone octamer (56). FRET signaling was monitored by exciting the nucleosomes at the Cy3 absorption maximum and measuring Cy5 emissions and consequently the FRET signal is at a maximum at the assembled starting point. In the presence of ATP, Mi-2β induces the histone octamer to translocate along the DNA such that the Cy3-labeled DNA 5′ end is moved away from the Cy5-labeled octamer and consequently the FRET signal is decreased (FIG. 10b). The reaction conditions for nucleosome repositioning were modified through multiple rounds of optimization and validation (FIG. 10c-d). […]

[2] = system: Mi-2β function (CXCL9, CXCL10, IRF1 expression) in A375 cells; test: Cell-based assay of inhibitory activity on Mi-2β function, A375; settings: summary of Table 3 (A375 and B16)
Protocol: The total RNA was extracted with QIAGEN RNeasy kit […] for cDNA synthesis with SuperScript II Reverse Transcriptase (Invitrogen). In total, 40 ng cDNA was used for quantitative real-time PCR amplification by TaqMan Gene Expression Master Mix (Thermo Fisher Scientific). The relative transcript levels were normalized with GAPDH expression. The data were calculated with the comparative CT method.

melanoma = settings: clinical data; cited from earlier work

IC50 [1]: 6.97 ± 2.07 µM
Compound: Cn1c(=O)[nH]c2ncc(-c3cccc(C(=O)NC4CCn5ccnc5C4)c3)cc21 (stereo not shown) [Z36]
inhibitory activity on Mi-2β function (enhanced expression of IFN-γ-responsive genes) [2]: high inhibitory activity

Compound: Cc1c(C(=O)NC2CCn3ccnc3C2)cccc1-c1cnc2[nH]c(=O)n(C)c2c1 (stereo not shown) [SJW-6-004]
inhibitory activity on Mi-2β function (enhanced expression of IFN-γ-responsive genes) [2]: high inhibitory activity

Compound: O=C(NC1CCn2ccnc2C1)c1cccc(-c2cnc3[nH]c(=O)n(Cc4cccc(C(F)(F)F)c4)c3c2)c1 (stereo not shown) [ZW-7-059]
inhibitory activity on Mi-2β function (enhanced expression of IFN-γ-responsive genes) [2]: high inhibitory activity

Compound: Cn1c(=O)n(C)c2ncc(-c3cccc(C(=O)NC4CCn5ccnc5C4)c3)cc21 (stereo not shown) [ZW-7-023]
inhibitory activity on Mi-2β function (enhanced expression of IFN-γ-responsive genes) [2]: high inhibitory activity

Compound: pembrolizumab: anti-PD-1 antibody
melanoma patients that respond (melanoma): 33%

Compound: ipilimumab: anti-CTLA-4 antibody
melanoma patients that respond (melanoma): 20%
